In the assay the target is μ-opioid receptor (Homo sapiens (Human), UniProt P35372). Put plainly: μ-opioid receptor [35S]GTPγS functional assay, HEK-293 cells (Table 6). Format: biochemical. The settings on record: for Emax: relative to DAMGO; for EC50: μ GTP. As for the experimental part:
μ-Opioid Receptor Functional Assay Procedures: [^35S]GTPγS functional assays were conducted using freshly thawed μ-receptor membranes prepared in-house from a cell line expressing recombinant μ opioid receptor in a HEK-293, CHO or U-2 OS cell background, or purchased from a commercial source (Perkin Elmer, Shelton, Conn.; or DiscovRx, Fremont, Calif.). Assay reactions were prepared by sequentially adding the following reagents to binding buffer (100 mM NaCl, 10 mM MgCl2, 20 mM HEPES, pH 7.4) on ice (final concentrations indicated): membrane protein (0.026 mg/mL), saponin ([…]), GDP ([…]) and [^35S]GTPγS (0.20 nM; Perkin Elmer, Shelton, Conn.). The prepared membrane solution (190 μl/well) was transferred to 96-shallow well polypropylene plates containing 10 μl of 20× concentrated stock solutions of the agonist [D-Ala^2, N-methyl-Phe^4 Gly-ol^5]-enkephalin (DAMGO) prepared in dimethyl sulfoxide (DMSO). Plates were incubated for 30 min at about 25° C. with shaking Reactions were terminated by rapid filtration onto 96-well Unifilter GF/B filter plates (Perkin Elmer, Shelton, Conn.) using a 96-well tissue harvester (Perkin Elmer, Shelton, Conn.) followed by three filtration washes with 200 μl of ice-cold wash buffer (10 mM NaH2PO4, 10 mM Na2HPO4, pH 7.4). Filter plates were subsequently dried at 50° C. for 2-3 hours. BetaScint scintillation cocktail (Perkin Elmer, Shelton, Conn.) was added (50 μl/well) and plates were counted using a Packard Top-Count for 1 min/well. Data were analyzed using the sigmoidal dose-response curve fitting functions in GraphPad PRISM v. 3.0, or an in-house function for non-linear, sigmoidal dose-response curve-fitting. [^35S]GTPγS functional assays can also be conducted using freshly thawed μ-receptor membranes prepared from a cell line expressing recombinant μ opioid receptor in a CHO-K1 cell background.
μ GTP Emax (%) is the maximal effect elicited by a compound relative to the effect elicited by DAMGO, a standard μ agonist. Generally, the μ GTP Emax (%) value measures the efficacy of a compound to treat or prevent pain or other Conditions.
The following TABLE 6 provides results on the activity response of certain Compounds of the Invention at the μ- and κ-opioid receptors determined as described above using HEK-293 cells.

Where only a bound is given, the exact number is not on record here.

Experimental findings from US9656962B2, “Ring-contracted morphinans and the use thereof” (Purdue Pharma L.P., priority 2013, dated 2017) are described below.

Take `Cc1ccc(CNC(=O)[C@H]2C[C@]34CCN(CC5CC5)[C@H](Cc5ccc(C#N)cc53)[C@]4(O)C2)cc1` [Compound 121, (2S,3aS,4R,9bS)-8-cyano-12-(cyclopropylmethyl)-3a-hydroxy-N-(4-methylbenzyl)-1,2,3,3a,4,5-hexahydro-4,9b-(epiminoethano)cyclopenta-[a]naphthalene-2-carboxamide]: the Emax stood at 29.3 ± 1.78% and the EC50 worked out at 1.09 ± 0.0702 µM.
On to `Cc1ccc(CNC(=O)[C@H]2C[C@]34CCN(C)[C@H](Cc5ccc(O)cc53)[C@]4(O)C2)cc1` [Compound 97, (2S,3aS,4R,9bS)-3a,8-dihydroxy-12-methyl-N-(4-methylbenzyl)-1,2,3,3a,4,5-hexahydro-4,9b-(epiminoethano)cyclo-penta[a]naphthalene-2-carboxamide], for which the Emax was determined as 90.3 ± 0.88% and the midpoint of the response, the EC50, lay at 0.0281 ± 0.00154 µM.
Taken in the same sequence, the figures for `CN1CC[C@]23C[C@H](NC(=O)c4ccccc4)C[C@@]2(O)[C@H]1Cc1ccc(O)cc13` [Compound 109, N-((2S,3aS,4R,9bR)-3a,8-dihydroxy-12-methyl-1,2,3,3a,4,5-hexahydro-4,9b-(epiminoethano)cyclopenta[a]naphthalen-2-yl)benzamide] were 70.4 ± 0.98% and 0.0804 ± 0.0141 µM.
Taken in the same sequence, the figures for `N#Cc1ccc2c(c1)[C@]13CCN(CC4CC4)[C@H](C2)[C@]1(O)C[C@@H](C(=O)NCCN1CCOCC1)C3` [Compound 123, (2S,3aS,4R,9bS)-8-cyano-12-(cyclopropylmethyl)-3a-hydroxy-N-(2-morpholinoethyl)-1,2,3,3a,4,5-hexahydro-4,9b-(epiminoethano)cyclopenta-[a]naphthalene-2-carboxamide] were 10.5 ± 1.07% and 2.92 ± 0.378 µM.
For the compound `O=C(NCc1cc(O)cc(O)c1)[C@@H]1C[C@]23CCN(CC4CC4)[C@H](Cc4ccc(O)cc42)[C@]3(O)C1` [Compound 139, (2R,3aS,4R,9bS)-12-(cyclopropylmethyl)-N-(3,5-dihydroxybenzyl)-3a,8-dihydroxy-1,2,3,3a,4,5-hexahydro-4,9b-(epimino-ethano)cyclopenta[a]naphthalene-2-carboxamide], the Emax was -1%. The EC50 (bound given in μM) was over 20 µM.
In the same order, the values of `O=C(NCc1cccc(O)c1O)[C@@H]1C[C@]23CCN(CC4CC4)[C@H](Cc4ccc(O)cc42)[C@]3(O)C1` [Compound 124, (2R,3aS,4R,9bS)-12-(cyclopropylmethyl)-N-(2,3-dihydroxybenzyl)-3a,8-dihydroxy-1,2,3,3a,4,5-hexahydro-4,9b-(epimino-ethano)cyclopenta[a]naphthalene-2-carboxamide] are 1.93 ± 2.93% and over 20 µM.
`Cc1ccc(CNC(=O)[C@@H]2C[C@]34CCN(CC5CC5)[C@H](Cc5ccc(C#N)cc53)[C@]4(O)C2)cc1` [Compound 120, (2R,3aS,4R,9bS)-8-cyano-12-(cyclopropylmethyl)-3a-hydroxy-N-(4-methylbenzyl)-1,2,3,3a,4,5-hexahydro-4,9b-(epiminoethano)cyclopenta-[a]naphthalene-2-carboxamide]: the Emax worked out at 22.7 ± 1.92% and the EC50 was 0.631 ± 0.152 µM.
For `O=C(NCc1ccc(F)c(F)c1)[C@@H]1C[C@]23CCN(CC4CC4)[C@H](Cc4ccc(O)cc42)[C@]3(O)C1` [Compound 145, (2R,3aS,4R,9bS)-12-(cyclopropylmethyl)-N-(3,4-difluorobenzyl)-3a,8-dihydroxy-1,2,3,3a,4,5-hexahydro-4,9b-(epimino-ethano)cyclopenta[a]naphthalene-2-carboxamide], the Emax is -1%. The EC50 (bound given in μM) was over 20 µM.
In the same order, the values of `O=C(NCCc1ccc(Cl)c(Cl)c1)[C@@H]1C[C@]23CCN(CC4CC4)[C@H](Cc4ccc(O)cc42)[C@]3(O)C1` [Compound 131, (2R,3aS,4R,9bS)-12-(cyclopropylmethyl)-N-(3,4-dichlorophenethyl)-3a,8-dihydroxy-1,2,3,3a,4,5-hexahydro-4,9b-(epiminoethano)cyclopenta[a]naphthalene-2-carboxamide] are 1% and over 20 µM.
As to `CN1CC[C@]23C[C@H](C(=O)NCCO)C[C@@]2(O)[C@H]1Cc1ccc(O)cc13` [Compound 115, (2S,3aS,4R,9bS)-3a,8-dihydroxy-N-(2-hydroxyethyl)-12-methyl-1,2,3,3a,4,5-hexahydro-4,9b-(epiminoethano)cyclo-penta[a]naphthalene-2-carboxamide], the Emax was 35 ± 1.14% and a half-maximal effect (EC50) was put at 0.917 ± 0.131 µM.
Taken in the same sequence, the figures for `O=C([C@H]1C[C@]23CCN(CC4CC4)[C@H](Cc4ccc(O)cc42)[C@]3(O)C1)N1CCN(c2ccccc2)CC1` [Compound 96, ((2S,3aS,4R,9bS)-12-(cyclopropylmethyl)-3a,8-dihydroxy-1,2,3,3a,4,5-hexahydro-4,9b-(epiminoethano)cyclopenta-[a]naphthalen-2-yl)(4-phenylpiperazin-1-yl)methanone] were 14.2 ± 2.5% and 0.0144 ± 0.00255 µM.
In the same order, the values of `CN1CC[C@]23C[C@H](C(=O)NCc4ccc(Cl)c(Cl)c4)C[C@@]2(O)[C@H]1Cc1ccc(O)cc13` [Compound 101, (2S,3aS,4R,9bS)-N-(3,4-dichlorobenzyl)-3a,8-dihydroxy-12-methyl-1,2,3,3a,4,5-hexahydro-4,9b-(epiminoethano)cyclo-penta[a]naphthalene-2-carboxamide] are 96.7 ± 2.19% and 0.00158 ± 0.00022 µM.
With `N#Cc1ccc2c(c1)[C@]13CCN(CC4CC4)[C@H](C2)[C@]1(O)C[C@H](C(=O)NCCN1CCOCC1)C3` [Compound 122, (2R,3aS,4R,9bS)-8-cyano-12-(cyclopropylmethyl)-3a-hydroxy-N-(2-morpholinoethyl)-1,2,3,3a,4,5-hexahydro-4,9b-(epiminoethano)cyclopenta-[a]naphthalene-2-carboxamide], the Emax amounted to 0.33 ± 0.67%. Further, the EC50 (bound given in μM) is over 20 µM.
In the case of `NC(=O)c1ccc2c(c1)[C@]13CCN(CC4CC4)[C@H](C2)[C@]1(O)C[C@@H](C(=O)NCCN1CCOCC1)C3` [Compound 119, (2S,3aS,4R,9bS)-12-(cyclopropylmethyl)-3a-hydroxy-N^2-(2-morpholinoethyl)-1,2,3,3a,4,5-hexahydro-4,9b-(epimino-ethano)cyclopenta[a]naphthalene-2,8-dicarboxamide], the Emax was determined as 18.4 ± 1.55% and the EC50 came out at 0.0134 ± 0.00419 µM.
Consider `O=C(NCc1cccc(O)c1)[C@@H]1C[C@]23CCN(CC4CC4)[C@H](Cc4ccc(O)cc42)[C@]3(O)C1` [Compound 142, (2R,3aS,4R,9bS)-12-(cyclopropylmethyl)-3a,8-dihydroxy-N-(3-hydroxybenzyl)-1,2,3,3a,4,5-hexahydro-4,9b-(epimino-ethano)cyclopenta[a]naphthalene-2-carboxamide], for which the Emax stood at 0%. Further, the EC50 (bound given in μM) is over 20 µM.
As for `CN1CC[C@]23C[C@@H](NC(=O)c4ccccc4)C[C@@]2(O)[C@H]1Cc1ccc(O)cc13` [Compound 110, N-((2R,3aS,4R,9bR)-3a,8-dihydroxy-12-methyl-1,2,3,3a,4,5-hexahydro-4,9b-(epiminoethano)cyclopenta[a]naphthalen-2-yl)benzamide], the Emax stood at 35.2 ± 0.76% and the response was half-maximal at 8.41 ± 0.956 µM (EC50).
As to `O=C(NCc1ccccc1O)[C@@H]1C[C@]23CCN(CC4CC4)[C@H](Cc4ccc(O)cc42)[C@]3(O)C1` [Compound 149, (2R,3aS,4R,9bS)-12-(cyclopropylmethyl)-3a,8-dihydroxy-N-(2-hydroxybenzyl)-1,2,3,3a,4,5-hexahydro-4,9b-(epimino-ethano)cyclopenta[a]naphthalene-2-carboxamide], the Emax worked out at 0%. The EC50 (bound given in μM) is over 20 µM.
Turning to `CN1CC[C@]23C[C@H](C(=O)NCc4ccc(Cl)cc4Cl)C[C@@]2(O)[C@H]1Cc1ccc(O)cc13` [Compound 107, (2S,3aS,4R,9bS)-N-(2,4-dichlorobenzyl)-3a,8-dihydroxy-12-methyl-1,2,3,3a,4,5-hexahydro-4,9b-(epiminoethano)cyclo-penta[a]naphthalene-2-carboxamide], the Emax is 94.7 ± 0.33% and the half-maximal effective concentration (EC50) stood at 0.0108 ± 0.00083 µM.
`CN1CC[C@]23C[C@@H](C(=O)N4CCOCC4)C[C@@]2(O)[C@H]1Cc1ccc(O)cc13` [Compound 111, ((2R,3aS,4R,9bS)-3a,8-dihydroxy-12-methyl-1,2,3,3a,4,5-hexahydro-4,9b-(epiminoethano)cyclopenta[a]naphthalen-2-yl)(morpholino)methanone]: the Emax was determined as 35.1 ± 1.06% and the midpoint of the response, the EC50, lay at 3.17 ± 0.493 µM.
